Source: patent publication US20220211678A1, “USES OF (+)-A-DIHYDROTETRABENAZINE IN METHODS OF TREATING MOVEMENT DISORDER” (ADEPTIO PHARMACEUTICALS LIMITED, priority 2017, published 2022)

What was measured:
[1] = Plasma levels of (+)-α-dihydrotetrabenazine up to 3 hours after oral dosing of human volunteers (Example 1A); type: in vivo; conditions: 7.5 mg oral, 0.5 h
Experimental: […] […] Blood samples were not taken from the fifth volunteer. At 60 minutes after drug administration, PET scans were initiated and these were stopped at 120 minutes after drug administration. The experiment was carried out at dosages of 7.5 mg, 15 mg and 22.5 mg.

[2] = system: non-amphetamine induced rats; test: Locomotor activity and stereotypic behaviour in non-amphetamine induced rats, open field arena (Example 2, Study 3); type: in vivo, rat; conditions: Study 3, non-induced rats; (+)-α-DHTBZ 2.5 mg/kg or 5 mg/kg, risperidone 1 mg/kg
Experimental: All animal experiments were carried out according to the National Institute of Health (NIH) guidelines for the care and use of laboratory animals, and approved by the National Animal Experiment Board, Finland. Male CD (Charles River Laboratories, Germany) at weight range of 200-250 g (165-200 g upon arrival) were used for the experiments. Animals were housed at a standard temperature (22±1° C.) and in a light-controlled environment (lights on from 7 am to 8 pm) with ad libitum access to food and water.
Locomotor activity of the rats was tested in open field arena. The open field test was performed during the rat light cycle and under a normal lighting evenly distributed to the test chambers. The paths of the rats were recorded by activity monitor (Med. Associates Inc.).
Dosing the vehicle, vehicle-amphetamine, (+)-α-DHTBZ or risperidone was done prior to LMA test. The rats were placed in the centre of the arena, and the path was recorded for 60 minutes.
Animals were grouped as follows: • Group 1: 10 rats treated with Vehicle • Group 2: 10 rats treated with (+)-α-DHTBZ 2.5 mg/kg • Group 3: 10 rats treated with (+)-α-DHTBZ 5 mg/kg • Group 4: 10 rats treated with risperidone 1 mg/kg

[3] = target: T1, VMAT2 (Homo sapiens, UniProt Q05940); test: % VMAT2 blocking by PET scan 60-120 minutes after oral dosing of human volunteers (Example 1A); type: in vivo
T1 construct: from tissue; host or cells: brain of living human volunteers, measured by PET
T1 sequence (Q05940 whole entry): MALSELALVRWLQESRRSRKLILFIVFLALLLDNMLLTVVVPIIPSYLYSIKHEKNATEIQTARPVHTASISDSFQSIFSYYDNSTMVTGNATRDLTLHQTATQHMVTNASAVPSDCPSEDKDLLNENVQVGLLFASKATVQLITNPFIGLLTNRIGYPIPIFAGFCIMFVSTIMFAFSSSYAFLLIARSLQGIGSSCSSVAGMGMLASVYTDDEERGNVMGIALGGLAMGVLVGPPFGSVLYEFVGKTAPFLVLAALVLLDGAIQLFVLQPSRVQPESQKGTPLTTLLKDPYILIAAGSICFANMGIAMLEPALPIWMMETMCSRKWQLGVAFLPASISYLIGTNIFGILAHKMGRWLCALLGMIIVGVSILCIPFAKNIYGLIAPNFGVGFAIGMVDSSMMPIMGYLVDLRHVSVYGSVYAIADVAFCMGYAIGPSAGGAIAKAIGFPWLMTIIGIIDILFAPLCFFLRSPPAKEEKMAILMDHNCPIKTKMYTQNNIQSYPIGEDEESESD
Description: Complete blocking of VMAT2 is considered undesirable as this can lead to unwanted side effects, such as Parkinsonism. […] The levels of VMAT2 blocking can be determined by competitive binding studies using Positron Emission Tomography (PET). By co-administering a radioactive ligand with the compound of interest at various concentrations, the proportion of binding sites occupied can be determined (see for example, Matthews et al., “Positron emission tomography molecular imaging for drug development”, Br. J. Clin. Pharmacol., 73:2, 175-186). Accordingly, the invention also provides:
In four of the volunteers, blood sample were taken at 30, 60, 120 and 180 minutes after drug administration. Blood samples were not taken from the fifth volunteer. At 60 minutes after drug administration, PET scans were initiated and these were stopped at 120 minutes after drug administration.
The experiment was carried out at dosages of 7.5 mg, 15 mg and 22.5 mg.

Question: Which results are given for `COc1cc2c(cc1OC)[C@H]1C[C@@H](O)[C@H](CC(C)C)CN1CC2` [(+)-α-dihydrotetrabenazine, (R,R,R)-3-isobutyl-9,10-dimethyloxy-1,3,4,5,7,11b-hexahydro-2H-pyrido[2,1-a]isoquinolin-2-ol]?
Answer: plasma concentration of (+)-α-dihydrotetrabenazine ([1]; subject 1 (112 kg)): BLQ; plasma concentration of (+)-α-dihydrotetrabenazine ([1]; subject 6 (68 kg)): BLQ; total movement compared to rats treated with the vehicle [2]: comparable; total stereotypic behaviour compared to rats treated with the vehicle [2]: comparable; % VMAT2 blocking ([3]; 7.5 mg oral, PET scan 60-120 min after administration, subject 1 (112 kg)): 54%; % VMAT2 blocking ([3]; 7.5 mg oral, PET scan 60-120 min after administration, subject 2 (76 kg)): 73%; % VMAT2 blocking ([3]; 7.5 mg oral, PET scan 60-120 min after administration, subject 3 (129 kg)): 62%; % VMAT2 blocking ([3]; 7.5 mg oral, PET scan 60-120 min after administration, subject 4 (59 kg)): 84%; % VMAT2 blocking ([3]; 7.5 mg oral, PET scan 60-120 min after administration, subject 5 (91 kg)): 73%; % VMAT2 blocking ([3]; 7.5 mg oral, PET scan 60-120 min after administration, subject 6 (68 kg)): 60%; % VMAT2 blocking ([3]; 15 mg oral, PET scan 60-120 min after administration, subject 1 (112 kg)): 73%; % VMAT2 blocking ([3]; 15 mg oral, PET scan 60-120 min after administration, subject 2 (76 kg)): 83%; % VMAT2 blocking ([3]; 15 mg oral, PET scan 60-120 min after administration, subject 3 (129 kg)): 69%; % VMAT2 blocking ([3]; 15 mg oral, PET scan 60-120 min after administration, subject 4 (59 kg)): 89%; % VMAT2 blocking ([3]; 15 mg oral, PET scan 60-120 min after administration, subject 5 (91 kg)): 79%; % VMAT2 blocking ([3]; 15 mg oral, PET scan 60-120 min after administration, subject 6 (68 kg)): 76%; % VMAT2 blocking ([3]; 22.5 mg oral, PET scan 60-120 min after administration, subject 1 (112 kg)): 75%; % VMAT2 blocking ([3]; 22.5 mg oral, PET scan 60-120 min after administration, subject 2 (76 kg)): 82%; % VMAT2 blocking ([3]; 22.5 mg oral, PET scan 60-120 min after administration, subject 3 (129 kg)): 74%; % VMAT2 blocking ([3]; 22.5 mg oral, PET scan 60-120 min after administration, subject 5 (91 kg)): 82%; % VMAT2 blocking ([3]; 22.5 mg oral, PET scan 60-120 min after administration, subject 6 (68 kg)): 62%; % VMAT2 blocking ([3]; heavier individuals, doses as low as 7.5 mg): at least 50%
